Results published in patent US5762953A, “Transdermal propentofylline compositions for the treatment of Alzheimers disease” (Theratech, Inc., priority 1996, dated 1998).

What was measured:
[1] = oral treatment; cited from earlier work
[2] = system: nucleoside transport; settings: cerebral ischemia; cited from earlier work
[3] = cited from earlier work
[4] = cited from earlier work; remark: listed apart in the source
[5] = In vitro skin flux study of reservoir formulations, heat separated human epidermal membrane, modified Franz diffusion cells; format: in vitro ADME
Procedure: Two reservoir type formulations (I and II) were prepared for the determination of initial propentofylline skin flux rates.
Approximately 4.0 ml of a base solution was prepared in a 7 ml glass vial. This solution consisted of 50% v/v of ethanol, USP; 15% v/v purified water (18 Mohm-cm); 30% v/v glycerin, USP; 1% v/v of glycerol monooleate (GMO, "Myverol® 18-99); 1% v/v methyl laurate (ML). To one solution was added sufficient propentofylline provide a concentration of about 72 mg/ml of solution (Formulation I) and to the other was added sufficient propentofylline to provide a concentration of about 131 mg/ml of solution (Formulation II). To each solution was added about 3% v/v of hydroxypropyl methylcellulose (Methocel® E10M) as a thickening agent. […]
Dermatomed (≈[…]) full thickness human cadaver skin was obtained from skin banks. […] Information on age, race, sex and anatomical site of the donor skin was recorded when available.
[…] skin flux studies were conducted using a heat separated human epidermal membrane and modified Franz diffusion cells. […] At predetermined time points, the entire contents of the receiver compartment were collected for drug quantitation,and the receiver compartment refilled with fresh receptor medium, taking care to eliminate any air bubbles at the skin/solution interface. […]

CCCn1cnc2c1c(=O)n(CCCCC(C)=O)c(=O)n2C [propentofylline, 1-(5'-oxohexyl)-3-methyl-7-propylxanthine]
most frequent side effects [1]: headaches, dizziness, gastrointestinal pain and nausea | nucleoside transport inhibition, neuroprotective effects [2]: nucleoside transport inhibitor with neuroprotective effects in cerebral ischemia | rate of deterioration / acute improvement of patient's condition ([3]; neuroprotective effect): although not producing an acute improvement in the patient's condition, does cause a reduction in the rate of deterioration | clinical parameters in dementia ([3]; placebo controlled trials, mild to moderate dementia): positively influence clinical parameters in placebo controlled trials | plasma propentofylline concentration ([4]; 2 hours following a single 300 mg oral dose, concluded from literature PK data): ~10 ng/mL | elimination half-life ([4]; humans): 15 to 45 min | hepatic first pass metabolism ([4]; humans): extensive hepatic first pass metabolism primarily to inactive metabolites | absolute bioavailability after oral administration ([4]; oral, humans): 5-10% | effect of food on bioavailability ([4]; oral, humans): Drug interactions with food further reduce bioavailability | constant migration rate [5]: about 2 mg/cm^2 /24 h | sustained daily dosage provided by transdermal delivery [5]: 30 mg
